According to patent US11413278B2, “Compounds and methods for promoting stress resistance” (priority 2015, dated 2022):
Read-outs that look alike come from different tables or passages of the source.

What was measured:
C. elegans = assay type: in vivo, Caenorhabditis elegans; conditions: in vivo
How it was run: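 Survival under oxidative stress: 500 μM H2O2 (final) was added to day-4 adults kept in liquid with compounds, FUdR present, 4 wells per molecule and 0.2% DMSO controls, with daily scoring of viability.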

[1] = test system: human dermal fibroblast (HDF) primary cells; assay: H2O2-resistance in primary human dermal fibroblasts; assay type: cell-based; conditions: for fold induction at 10 µM: Homo sapiens; for Assay 6: H2O2-resistant, at 10 uM, human dermal fibroblast (HDF) primary cells: YES/NO
[2] = test system: phosphorylated γH2A.X and TP53BP1; assay: DNA damage marker analysis (immuno-staining); conditions: for activity at 10 µM: Homo sapiens, WI-38, 24 h; for P = Potential DNA-damaging / R = Potential DNA damaging: human, 24 h
How it was run: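 Immunofluorescence read-out for phospho-γH2A.X (Ser-139) and phospho-TP53BP1 (Ser-1778), with DAPI nuclear stain and automated imaging at 10×. WI-38 cells (~8,000 per well) were exposed to small molecules for 24 h after 24 h of culture, with doxorubicin (300 nM, 24 h) or H2O2 (700 μM, 3 h) as positive damage controls.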

[3] = test system: PC12 cells expressing poly(Q)103-Htt-EGFP; assay: Poly(Q) toxicity & viability analysis (cellular model of Huntington's disease); assay type: cell-based, rat; conditions: for M = Huntington's poly-Q toxicity attenuation: score; for K = Huntington's poly-Q toxicity attenuation: summary score
How it was run: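 Readout is CellTiter-Glo ATP content measured after 48 hrs. Cells are a PC12 line stably expressing inducible poly(Q)103-Htt-EGFP, where induction produces toxic aggregates.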

[4] = Experiment 1, HDF cells, read-out: Experiment 1, HDF cells (under H2O2 stress treatment), at 10 uM (fold change)
[5] = Experiment 2, HDF cells, read-out: Experiment 2, HDF cells (under H2O2 stress treatment), at 10 uM (fold change)
[6] = read-out: Experiment 1, H2A.X-P DNA damage foci staining (no H2O2 stress treatment), at 10 uM
[7] = read-out: Experiment 2, H2A.X-P DNA damage foci staining (no H2O2 stress treatment), at 10 uM
[8] = read-out: Experiment 2, H2A.X-P DNA damage foci staining (under H2O2 stress treatment), at 10 uM
[9] = read-out: Experiment 2, TP53BP1-P DNA damage foci staining (no H2O2 stress treatment), at 10 uM
[10] = read-out: Experiment 2, TP53BP1-P DNA damage foci staining (under H2O2 stress treatment), at 10 uM

| SMILES | L = H2O2-resistance in worms (C. elegans) | N = H2O2-resistance in woms (C. elegans) | fold induction at 10 µM [1, 4] | fold induction at 10 µM [1, 5] | Assay 6: H2O2-resistant, at 10 uM, human dermal fibroblast (HDF) primary cells [1] | activity at 10 µM [2, 6] [%] | activity at 10 µM [2, 7] [%] | activity at 10 µM [2, 8] [%] | activity at 10 µM [2, 9] [%] | activity at 10 µM [2, 10] [%] | P = Potential DNA-damaging [2] | R = Potential DNA damaging [2] | M = Huntington's poly-Q toxicity attenuation [3] | K = Huntington's poly-Q toxicity attenuation [3] | H2O2-resistance assay, 1st experiment (C. elegans) |
| --- | --- | --- | --- | --- | --- | --- | --- | --- | --- | --- | --- | --- | --- | --- | --- |
| COC(=O)CCc1sc2c(c1[N+](=O)[O-])NC(=O)CCC2 [O20] | 0 | 0 | 1.08 | 63.9 | YES | 115 | 130 | 178 | 108 | 544 | 0 | 0 | 0 | 0 | – |
| COc1ccc(/C=C2\SC(=N)N(c3nccs3)C2=O)cc1 [O21] | 0 | 0 | 140 | 25.5 | YES | 161 | 216 | 127 | 196 | 620 | 1 | 1 | 0 | 0 | – |
| CC(C)(C)c1ccc(OCC(=O)Nc2ccc3c4c(cccc24)C(=O)NC3=O)cc1 [O22] | 0 | 0 | 15.3 | 49.6 | YES | 101 | 121 | 210 | 154 | 510 | 0 | 0 | 0 | 0 | – |
| COc1cccc(/C=C2\CN(C)C/C(=C\c3cccc(OC)c3OC)C2=O)c1OC [O23] | 0 | 0 | 1.68 | 52.4 | YES | 79.9 | 326 | 33.4 | 42.4 | 13.2 | 0 | 0 | 0 | 0 | YES; |
